The assay concerns the target human PD-L1 / Human PD-1 (Homo sapiens (Human), UniProt Q9NZQ7). The experiment in a line: Enzyme-Linked Immunosorbent Assay (ELISA), PD-1/PD-L1 binding. As to conditions: plate-coated human PD-L1, biotinylated human PD-1, absorbance 450 nm. The method, then: 96 Well plates were coated with 1 μg/mL of human PD-L1 (obtained from R&D) in PBS overnight at 4° C. The wells were then blocked with 2% BSA in PBS (W/V) with 0.05% TWEEN-20 for 1 hour at 37° C. The plates were washed 3 times with PBS/0.05% TWEEN-20 and the compounds were serial diluted (1:5) in dilution medium and added to the ELISA plates. Human PD-1 and biotin 0.3 μg/mL (ACRO Biosystems) were added and incubated for 1 hour at 37° C. then washed 3 times with PBS/0.05% TWEEN-20. A second block was performed with 2% BSA in PBS (W/V)/0.05% TWEEN-20 for 10 min at 37° C. and was washed 3 times with PBS/0.05% TWEEN-20. Streptavidin-HRP was added for 1 hour at 37° C. then washed 3 times with PBS/0.05% TWEEN-20. TMB substrate was added and reacted for 20 min at 37° C. A stop solution (2 N aqueous H2SO4) was added. The absorbance was read at 450 nm using a micro-plate spectrophotometer.
Compounds in Table 1 were prepared by methods as described in the Examples and evaluated according to the assay above. The IC50 of the compounds are presented in Table 1 as follows: • +, 20000 nM≥IC50≥500 nM; • ++, 500 nM≥IC50≥100 nM; • +++, 100 nM>IC50.
Background: ELISA stands for enzyme-linked immunosorbent assay.

The IC50 is the concentration at which inhibition is half-maximal.

Chain of human PD-L1 / Human PD-1 (Q9NZQ7 19-239): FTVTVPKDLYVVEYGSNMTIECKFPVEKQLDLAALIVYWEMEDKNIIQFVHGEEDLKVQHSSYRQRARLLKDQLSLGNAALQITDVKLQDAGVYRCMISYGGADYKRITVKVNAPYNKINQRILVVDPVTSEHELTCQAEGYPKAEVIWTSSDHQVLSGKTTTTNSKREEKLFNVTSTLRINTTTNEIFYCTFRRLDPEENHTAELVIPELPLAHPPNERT

With `Cc1c(COc2cc3c(cc2Cl)CNC(CO)CCCCNC(=O)c2cncc(c2)CO3)cccc1-c1cccc(OCCCN2CC[C@@H](O)C2)c1C` (single isomer, unassigned) [Compound 1.024], the IC50 was below 100 nM. In turn, `COc1cccc(-c2cccc(COc3cc4c(cc3Cl)CN[C@H](C(=O)O)CCCCNC(=O)c3cncc(c3)CO4)c2C)c1F` [Compound 1.001] gave an IC50 below 100 nM. `Cc1c(COc2cc3c(cc2Cl)CN[C@H](C(=O)O)CCCCNC(=O)c2cncc(c2)CO3)cccc1-c1ccc2c(c1)OCCO2` [Compound 1.002] displayed a 50% inhibitory concentration (IC50) below 100 nM. The figure for `Cc1c(COc2cc3c(cc2Cl)CN[C@H](C(=O)O)CCCCNC(=O)c2cncc(c2)CO3)cccc1-c1ccccc1F` [Compound 1.003] is below 100 nM; for `Cc1c(COc2cc3c(cc2Cl)CN[C@H](C(=O)O)CCCCNC(=O)c2cncc(c2)CO3)cccc1-c1cccc(OCCCN2CCC(O)CC2)c1C` [Compound 1.004] it is below 100 nM.

`Cc1c(COc2cc3c(cc2Cl)CN[C@H](C(=O)O)CCCCNC(=O)c2cncc(c2)CO3)cccc1-c1cccc(OCCCCl)c1C` [Compound 1.005] gave an IC50 of 500 to 20000 nM. With `Cc1c(COc2cc3c(cc2Cl)CN[C@@H](CO)C(=O)NCCNC(=O)c2cncc(c2)CO3)cccc1-c1ccccc1` [Compound 1.006], the IC50 lay in the range of 100 to 500 nM. `O=C1NCCCC[C@@H](C(=O)O)NCc2cc(Cl)c(O[C@H]3CCc4c(-c5ccccc5F)cccc43)cc2OCc2cncc1c2` [Compound 1.007] showed a half-inhibitory concentration (IC50) of 100 to 500 nM. Take `Cc1c(COc2cc3c(cc2Cl)CN[C@H](C(=O)O)COCCNC(=O)c2cncc(c2)CO3)cccc1-c1ccccc1` [Compound 1.008]: the IC50 lay within 100 to 500 nM. Turning to `Cc1c(COc2cc3c(cc2Cl)CN[C@H](C(=O)O)CCNC(=O)c2cncc(c2)CO3)cccc1-c1ccccc1` [Compound 1.009], the IC50 lay within 500 to 20000 nM. Compound `Cc1c(COc2cc3c(cc2Cl)CN[C@H](C(=O)O)CCCNC(=O)c2cncc(c2)CO3)cccc1-c1ccccc1` [Compound 1.010] returned an IC50 of 100 to 500 nM. The figure for `Cc1c(COc2cc3c(cc2Cl)CN[C@H](CC(=O)O)CCCCNC(=O)c2cncc(c2)CO3)cccc1-c1ccccc1` [Compound 1.011] is 100 to 500 nM; for `Cc1c(COc2cc3c(cc2Cl)CN[C@H](C(=O)O)CCCCNC(=O)CCCCO3)cccc1-c1ccccc1` [Compound 1.012] it is 100 to 500 nM. The figure for `Cc1c(COc2cc3c(cc2Cl)CN[C@H](C(=O)O)CCCCNC(=O)c2cncc-3c2)cccc1-c1ccccc1` [Compound 1.013] is 500 to 20000 nM. Regarding `O=C1NCCCC[C@@H](C(=O)O)NCc2cc(Cl)c(O[C@H]3CCc4c(-c5ccc6c(c5F)OCCO6)cccc43)cc2OCc2cncc1c2` [Compound 1.014], the IC50 was below 100 nM. Take `Cc1c(COc2cc3c(cc2Cl)CN[C@H](C(=O)O)CCCCNC(=O)c2cncc(c2)CO3)cccc1-c1ccccc1` [Compound 1.016]: the IC50 was below 100 nM. The figure for `Cc1c(COc2cc3c(cc2Cl)CN[C@H](C(=O)O)CCCCNC(=O)c2cncc(c2)CO3)cccc1-c1cccc(OCCCN2CC(O)C2)c1C` [Compound 1.020] is below 100 nM.

`Cc1c(COc2cc3c(cc2Cl)CN[C@H](C(=O)O)CCCCNC(=O)c2cc(C#N)cc(c2)CO3)cccc1-c1cccc(OCCCN2CCC(F)CC2)c1C` [Compound 1.021] showed a half-inhibitory concentration (IC50) below 100 nM.

In turn, `Cc1c(COc2cc3c(cc2Cl)CN[C@H](CO)CCCCNC(=O)c2cncc(c2)CO3)cccc1-c1cccc(OCCCN2CCC(F)CC2)c1C` [Compound 1.025] yielded an IC50 below 100 nM.

Values taken from US10392405B2, “Macrocyclic immunomodulators” (CHEMOCENTRYX, INC., priority 2017, dated 2019).
